In patent publication US7993822B2, “Aging biomarker” (Vlaams Interuniversitair Instituut Voor Biotechnologie VZW, priority 2004, dated 2011):

Experiments:
[1] = tested on: rat; test: Serum N-glycan profile of rats treated with CCl4 and co-treated with Interferon-γ; assay type: in vivo, rat (Wistar)
Description: The glycoproteins were denatured by addition of at least 2 volumes RCM buffer (8 M urea, 360 mM Tris, pH 8.6, 3.2 mM EDTA) to each sample in a final volume of at least 50 μl, and the samples were then placed at 50° C. for 1 h. The N-linked glycans present on the serum proteins in 5 μl of serum were released after binding the protein to an Immobilon P-lined 96-well plate. They were then derivatized with APTS (Molecular Probes, Eugene, Calif., USA) and analyzed on an ABI 377A DNA sequencer (Applied Biosystems).
(§1) The repeated administration of CCl4 is widely employed as an animal model of human hepatic fibrosis/cirrhosis. In order to evaluate whether the sugar marker has high predictive values for the liver damage, we tested N-glycan profiling on the CCl4 treated, co-treated with INF-γ and control rat groups (Wistar). Take into account that N-glycosylation in animals is species-specific, we therefore profiled the N-linked glycan to get a fingerprinting in rat serum. […] N-glycan peaks of P1, P3, P5, P6, P7, P9 are consistent with that of human. However, four peaks (rP2, rP4, rP8 and rP10) are rat-specific N-linked sugars.

[2] = tested on: rat; test: Biochemical assay in serum (ALAT, ASAT, TBil) of CCl4 exposed rats, with or without Interferon-γ co-treatment; assay type: in vivo, rat (Wistar)
Excerpt: as §1
Moreover, the rat serum alanine aminotransferase activity (ALAT), aspartate aminotransferase activity (ASAT) and total bilirubin concentration (TBil) were analysed using routine photometric tests on a Hitachi 747 analyser (Boehringer Mannheim GmbH, Diagnostica) for subsequent assessment of hepatic injury and liver function, respectively.

[3] = rat, repeated administration of CCl4, Week 12, vs control group
[4] = CCl4 treated rat co-treated with INF-γ, Week 12, vs CCl4 group

Row | Molecule | trends of six serum N-glycan peaks ([1]; CCl4 treated rat group compared to control group) | N-glycan profile between CCl4 group and control group ([1]; rat, Week 9, peaks P4 and P5 even in Week 6) | serum alanine aminotransferase activity (ALAT) [2, 3] | serum aspartate aminotransferase activity (ASAT) [2, 3] | total bilirubin concentration (TBil) [2, 3] | changes of serum N-glycan peaks ([1]; INF-γ co-treated group compared to CCl4 group) | liver damage caused by CCl4 treatment ([2]; CCl4 treated rat co-treated with INF-γ, Week 12) | serum ALAT level [2, 4] | serum ASAT level [2, 4] | serum bilirubin level [2, 4]
1 | ClC(Cl)(Cl)Cl [CCl4] | either increased or decreased | different trends | significantly raised | significantly raised | significantly raised |  |  |  |  | 
2 | Interferon-γ (protein, UniProt P01581 23-156, looked up, Interferon-γ co-treatment of CCl4 treated rats) Interferon gamma: QGTLIESLESLKNYFNSSSMDAMEGKSLLLDIWRNWQKDGNTKILESQIISFYLRLFEVLKDNQAISNNISVIESHLITNFFSNSKAKKDAFMSIAKFEVNNPQIQHKAVNELIRVIHQLSPESSLRKRKRSRC |  |  |  |  |  | less slop changes than CCl4-group | partially protected | decreasing levels | decreasing levels | decreasing levels
